Data set [1] is described as follows: Creatine quantification in serum after creatine supplementation. The conditions noted are these: C57BL/6J WT mice, B16-OVA model; i.p. injection or dietary supplementation (0.4 g/kg body weight), both routes. It is filed as in vivo, mouse. The text has this: A Creatine Assay Kit (Cat #ab65339, Abcam) was utilized to quantify creatine, both in vivo and in vitro, following the manufacturer's instructions. For the in vivo study, whole blood was collected (retro-orbital bleeding) from the experimental mice in a capillary tube, and the isolated serum was immediately used for the assay following the manufacturer's directions. For the in vitro study, cells were spun to remove culture media and suspended in cold PBS. Creatine was then quantified following the manufacturer's directions. The total amount of creatine detected was then normalized to cell numbers.
For creatine supplementation via i.p. injection, ceatine monohydrate (cat #C3630, Sigma-Aldrich) was dissolved in sterile PBS and i.p. injected to experimental animals daily at a dose of 10.5 mg per animal per injection.
For creatine supplementation via diet, experimental animals were fed a creatine-enriched isocaloric diet which is a customized formulation based on PicoLab Rodent Diet 20 enriched in creatine (3 g/Kg diet, cat #TD.170082, Envigo Teklad Diet). The diet was designed to reflect the safe daily dose of creatine recommended for enhanced athletic performance in humans (Mayo Clinic data). Non-treated mice (Ctrl) were fed a control diet prepared in a manner similar to that of the creatine-enriched diet.

In data set [2] the test system is tumor-infiltrating CD8 T cells. Nature of the data set: Flow cytometry phenotype of tumor-infiltrating CD8 T cells in B16-OVA model. The conditions noted are these: B16-OVA tumors collected day 17; creatine supplementation. It is filed as in vivo, mouse. The text has this:
Fluorochrome-conjugated monoclonal antibodies specific for mouse CD45.2 (cat #109820; clone 104), TCRβ (cat #109220; clone H57-597), CD4 (cat #100531; clone RM4-5), IFN-γ (cat #505806; clone XMG1.2), Granzyme B (cat #372208; clone QA16A02). TCR Vα2 (cat #127809; clone B20.1), CD69 (cat #104508; clone H1.2F3), CD25 (cat #102006; clone PC61), CD8 (cat #100732: clone 53-6.7), CD44 (cat #103030; clone IM7), LAG-3 (CD223) (cat #125207; clone C9B7W), and Tim-3 (CD366) (cat #119705; clone RMT3-23) were purchased from BioLegend. […] Stained cells were analyzed using a MACSQuant Analyzer 10 Flow Cytometer (Miltenyi Biotee). […] To assess gene expression, CD45^+ immune cells were sorted from TIIs using flow cytometry then analyzed for CrT mRNA expression using qPCR. To assess T cell activation status, TIIs were analyzed for surface activation marker (CD25 and PD-1) expression using flow cytometry. […] TIIs were analyzed for intracellular Granzyme B expression using flow cytometry. To assess T cell cytokine production, Tis were stimulated with PMA (50 ng/ml)+Ionomycine (500 ng/ml) in the presence of GolgiStop (4 μl per 6 ml culture) for 4 hours, then analyzed for intracellular cytokine (IL-2 and IFN-γ) production using flow cytometry. […]
(In general: A flow cytometer gives signals particle by particle.)

In data set [3] the test system is skeletal muscle fibers. Nature of the data set: Histological analysis of skeletal muscle (H&E, muscle-fiber diameter). The data set is classed as in vivo, mouse. The conditions noted are these: mice receiving creatine supplements (i.p. or food); biceps femoris. Here is the method: Skeletal muscle (biceps femoris) harvested from control (Ctrl) and experimental (Creatine ip and Creatine food) mice were fixed in 10% neutral-buffered formalin and embedded in paraffin for sectioning (5-μm thickness), followed by H&E staining using standard procedures (UCLA Translational Pathology Core Laboratory). The sections were imaged using an Olympus BX51 upright microscope equipped with a Macrofire® CCD camera (Optronics®). The muscle-fiber diameter was assessed with the use of an ImageJ software (NIH).

Data set [4] concerns B16-OVA tumors. Nature of the data set: B16-OVA tumors in immunodeficient NSG mice, creatine supplementation. The data set is classed as in vivo, mouse. The conditions noted are these: i.p. creatine.
For data set [5], the system named is MC38 colon cancer. Nature of the data set: MC38 colon cancer model, creatine supplementation and anti-PD-1 treatment. It is filed as in vivo, mouse. The settings on record: MC38 (CrT-negative); creatine supplementation alone. Here is the method:
To establish solid tumors, mice were s.c. injected above the right flank with 1×10^6 B16-OVA or 3×10^5 MC38 cells. Before injection, cells in log phase of growth were harvested and suspended in phosphate-buffered saline (PBS), and 50 μl of cell suspension were injected subcutaneously above the flank. Tumor size was periodically measured with a digital Vernier caliper (Thermo Fisher Scientific). For creatine supplementation via i.p. injection, […] monohydrate (cat #C3630, Sigma-Aldrich) was dissolved in sterile PBS and i.p. injected to experimental animals daily at a dose of 10.5 mg per animal per injection. To study the combination effects of creatine supplementation and PD-1/PD-L1 blockade treatment, B6 mice were inoculated with MC38 tumor cells and monitored for tumor growth; experimental mice also received i.p. supplement of creatine, as well as i.p. injection of an anti-PD-1 blocking antibody (clone RMP1-14; 300 μg/mouse/injection, twice per week) or an isotype control antibody (clone 2A3; 300 μg/mouse/injection, twice per week), alone or in combination. Tumor-free mice were maintained for three months, then challenged with MC38 tumor cells again and monitored for tumor recurrence over another 6-month period.

The conditions of data set [6]: humans (Kreider et al., 2017); cited from earlier work.

For the compound `CN(CC(=O)O)C(=N)N` [creatine], the “creatine concentrations in blood (serum)” value in data set [1] is on record as “elevated creatine concentrations in blood to a similar level”. Further, the ““exhaustion-prone” phenotype cells (PD-1hiCD62Llo) among tumor-infiltrating CD8 T cells” value in data set [2] is recorded as “significant reduction”. In addition, the “skeletal muscle fiber size” value in data set [3] is listed as “enlargement of skeletal muscle fibers”. Also, the tumor growth entry in data set [4] was “could not be suppressed”. For the same compound, the tumor suppression result in data set [5] is on record as “tumor suppression benefits”. Further, the “safety of long-term supplementation” value in data set [6] is given as “well-documented safety”.
